The source of these data is patent publication US20250092032A1, “DEOXYCYTIDINE KINASE INHIBITORS” (CENTRE NATIONAL DE LA RECHERCHE SCIENTIFIQUE, priority 2022, published 2025).

One assay addresses T1, dCK (Homo sapiens, UniProt P27707, C45S/C59S/C9S/S74E).
T1 construct: inferred from HisTrap purification with imidazole elution; made in house; host or cells: Escherichia coli BL21 pRIL
Briefly: Affinity assay: Thermal Shift Assay (TSA), dCK thermal stabilization. It counts as binding. The settings on record: dCK protein (C9S, C45S, C59S, S74E); 5 sM of protein, 50 sM of compound, 2% DMSO; mean ± SD. As to the method: dCK protein contained three solvent exposed cysteines mutated to serines in order to generate better quality crystals (C9S, C45S, C59S) and a serine mutated to glutamic acid (S74E). The S74E mutation mimics the phosphorylated state of this serine, which favors the open conformation of the enzyme, making it competent for nucleoside binding to evaluate the binding affinity with compounds. BL21 pRIL Escherichia Coli cells were transformed with dCK-plasmid. Cells were grown in LB media containing 100 μg/ml ampicillin and 34 μg/ml chloramphenicol at 18° C. for 20 h after induction with 1 mM IPTG. Cells were re-suspended in 50 mM TRIS, pH 8, 500 mM NaCl, 30 mM imidazole and 10% glycerol buffer containing one EDTA free anti-protease tablet (Roche). After sonication and centrifugation (30,000×g), the supernatant was loaded on a 5 ml HisTrap FF column (GE healthcare) pre-equilibrated with resuspension buffer. Protein was then eluted by re-suspension buffer containing 500 mM imidazole. Protein eluted fractions were mixed and concentrated. Protein was further purified by size exclusion chromatography (superdex 200 16/600, GE healthcare) in 20 mM HEPES, pH 7.5, and 200 mM NaCl before concentration to 30 mg/ml and storage at −80° C.
Thermal Shift Assay (TSA) experiments were performed in triplicate in 384-well PCR white plates (Thermo Scientific, AB-3384) in the assay buffer containing 20 mM HEPES, pH 7.5 and 200 mM NaCl. Final concentrations were adjusted to 5 sM of protein, 50 sM of compound (final 2% DMSO) and dye diluted to 1:1000, as recommended by manufacturer (Protein Thermal Shift Dye, ThermoFisher Scientific). […] Plates were centrifuged at 1000 rpm for 2 min at 4° C. Thermal melting experiments were carried using a CFX-384 Connect RT-PCR (Bio-Rad). Plates were first equilibrated at 25° C.; then, the plates were heated from 25 to 95° C. by 0.5° C./min steps. Raw fluorescence data were treated, and the melting temperatures (Tm) were calculated using CFX Manager 3.1 software (Bio-Rad). ΔTm represents the difference in Tm between the protein in the presence of compound and the protein alone (both at 2% DMSO). Each experiment was performed at least twice (with technical triplicates) and data are presented as the mean f SD in Table 1.

The subject of assay [1] is CCRF-CEM cell line (T-cell acute lymphoblastic leukemia). The assay is described as follows: Cellular assay: inhibition of CCRF-CEM cell proliferation in presence of dT and dC (CellTiter-Blue). It counts as cell-based. Conditions: Homo sapiens, read-out: CELLULAR ASSAY IC50 (nM), 200 μM dT and 1 μM dC, 72 hours, mean ± SD. As to the method: The cellular assay was set up to assess the ability to inhibit dCK activity in a cellular model. The model was developed with a T-cell acute lymphoblastic leukemia cell line (CCRF-CEM), because of its high dependence on the salvage pathway, thus on dCK activity. Cellular assays were performed to assess the inhibition of cell proliferation under two conditions: i) in the presence of the molecule alone to determine the non-specific effect on cells, independent of dCK (non-specific toxicity) and ii) in the presence of an inhibitor of the De Novo pathway to determine the ability of molecules to inhibit dCK and decrease tumor proliferation (activity on dCK). The inhibitor of the De Novo pathway chosen for the experiments was thymidine (dT), a physiological inhibitor of ribonucleotide reductase which arrests cell proliferation in phase S. The dTTP produced via thymidine kinase from dT acts as a RNR inhibitor by an allosteric regulation of the R1 subunit (FIG. 1). The addition of the nucleoside deoxycytidine (dC) in the medium allows the rescue of cell proliferation by passing only through the salvage pathway, mediated by dCK. Therefore, cell proliferation under these conditions (+dT+dC) is dCK dependent and it is possible to determine the IC50 of dCK inhibitors on the inhibition of cell proliferation. Results are expressed as % cell proliferation relative to the control with DMSO in Table 1.
CCFR-CEM cells were grown at 37° C. in RPMI 1640 with L-glutamine, supplemented with 100 units/ml penicillin, […] streptomycin, and 10% heat-inactivated foetal calf serum. The experiments were carried out on 96-well plates under the following conditions: 14,000 cells per well, RPMI 1640 culture medium supplemented with 10% heat-inactivated foetal calf serum, 200 sM of dT, 1 sM of dC and a range of dilutions of each molecule ranging from 40 μM to 10 μM, depending on the activity of the molecules (final 0.2% DMSO). Cells were incubated for 72 hours under these different conditions and finally, incubated with 10 μl/well of CellTiter-Blue reagent (Promega) for 4 hours at 37° C. The amount of reduced dye formed by metabolically active cells was quantified by its fluorescence measured at 560 nm (excitation) and 590 nm (emission) in a microplate reader (CLARIOstar, BMG Labtech). A blank well without cells was used as a background control. Each experiment was performed at least three times (with technical triplicates) and data are presented as the mean f SD.
(Resazurin is reduced to fluorescent resorufin, in cell work by metabolically active cells.)

The test system of a further assay is CCRF-CEM T-ALL cell line. Briefly: In vivo systemic leukemia model: NSG mice inoculated intravenously with luciferase-expressing CCRF-CEM cells.

T1 sequence (P27707 whole entry C9S/C45S/C59S/S74E): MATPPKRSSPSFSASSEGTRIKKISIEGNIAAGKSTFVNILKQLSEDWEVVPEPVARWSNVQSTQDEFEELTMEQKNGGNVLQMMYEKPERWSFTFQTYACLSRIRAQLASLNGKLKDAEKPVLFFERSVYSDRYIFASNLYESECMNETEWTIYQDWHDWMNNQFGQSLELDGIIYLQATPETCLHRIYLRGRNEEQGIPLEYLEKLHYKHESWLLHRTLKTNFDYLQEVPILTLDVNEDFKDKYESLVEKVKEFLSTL
Experimental for CCRF-CEM T-ALL cell line: Healthy 6 to 9 weeks-old male mice received 0.1×10^6 luciferase transduced-CCRF-CEM cells in the tail vein on Day 0 and were randomly assigned in four groups to receive intraperitoneal injections from Day 3 (Vehicle (n=8), dT (n=8), OR0642 (n=9) and dT+OR0642 (n=9)). […] Doses administered were: dT at 1.5 g/Kg, OR0642 at 40 mg/Kg and dT+OR0642 at 1.5 g/Kg and 40 mg/Kg, respectively. Vehicle was saline solution (0.9% NaCl) supplemented with 10% Kolliphor EL. OR0642 was administered in its hydrochloride salt form. Drug administration protocol is detailed in FIG. 4. Bioluminescence analysis was performed once/week using PhotonIMAGER Optima (Biospace Lab) following addition of endotoxin-free luciferin (30 mg/kg, Promega). Peripheral blood was obtained at Day 21 to determine the fraction of human blasts using flow cytometry. […] Analyses were performed on a Life Science Research Fortessa flow cytometer with DIVA software (BD Biosciences). The number of ALL cells/L peripheral blood was determined by using CountBright beads (Invitrogen, C36950) using described protocol. Daily monitoring of mice for symptoms of disease (ruffled coat, hunched back, weakness and reduced motility) determined the time of killing for injected animals with signs of distress. Kaplan-Meier curves, bioluminescence quantifications and statistical analyses were generated using Prism (Graphpad Software). Bioluminescence data were presented as the mean f SEM. Comparison of bioluminescence data at Day 21 was performed using One way ANOVA Kruskal-Wallis Test and Dunn's Multiple Comparison Test. Comparison of hCD45 populations was performed using One way ANOVA Kruskal-Wallis Test and Dunn's Multiple Comparison Test. Median survival times were compared using Log-Rank (Mantel-Cox) Test.

In the case of `CCCN(c1nc(-c2nccc(N)n2)cs1)c1cc(-c2ccc(OCC(=O)N3CCN(C)CC3)cc2)ccc1C` [OR0597, 4-(4-Aminopyrimidin-2-yl)-N-(4-methyl-4′-(2-(4-methylpiperazin-1-yl)-2-oxoethoxy)-[1,1′-biphenyl]-3-yl)-N-propylthiazol-2-amine], the “AFFINITY ASSAY +ΔTm (°)” value at dCK was determined as 17.1 ± 0.1 °. A word on the IC50: it is the concentration needed to halve the response being measured. On to `CCCN(c1nc(-c2nc(N)cc(N)n2)cs1)c1cc(-c2ccc(S(=O)(=O)N3CCN(C)CC3)cc2)ccc1C` [OR0607, 2-(2-((4-Methyl-4′-((4-methylpiperazin-1-yl)sulfonyl)-[1,1′-biphenyl]-3-yl)(propyl)amino)thiazol-4-yl)pyrimidine-4,6-diamine], for which, in assay [1], the IC50 amounted to 31 ± 27 nM. Besides, at dCK, the “AFFINITY ASSAY +ΔTm (°)” value is given as 19.2 ± 0.6 °. In the same order, the values of `Cc1ccc(-n2cc(CNS(C)(=O)=O)nn2)cc1N(CC(C)C)c1nc(-c2nc(N)cc(N)n2)cs1` [OR0609, N-((1-(3-((4-(4,6-Diaminopyrimidin-2-yl)thiazol-2-yl)(isobutyl)amino)-4-methylphenyl)-1H-1,2,3-triazol-4-yl)methyl) methanesulfonamide] are 3180 ± 611 nM and 13.5 ± 0.7 °. In the same order, the values of `CCCN(c1nc(-c2nc(N)cc(N)n2)cs1)c1cc(-c2ccc(S(=O)(=O)N3CCN(C)CC3)nc2)ccc1C` [OR0627, 2-(2-((2-Methyl-5-(6-((4-methylpiperazin-1-yl)sulfonyl)pyridin-3-yl)phenyl)(propyl)amino)thiazol-4-yl)pyrimidine-4,6-diamine] are 48 ± 17 nM and 17.5 ± 0.4 °. On to `CCCN(c1nc(-c2nc(N)cc(N)n2)cs1)c1cc(-c2ccc(OCC(=O)N3CCN(C)CC3)nc2)ccc1C` [OR0630, 2-((5-(3-((4-(4,6-Diaminopyrimidin-2-yl)thiazol-2-yl)(propyl)amino)-4-methylphenyl)pyridin-2-yl)oxy)-1-(4-methylpiperazin-1-yl)ethan-1-one], for which the “AFFINITY ASSAY +ΔTm (°)” value on dCK is 17.4 ± 0.2 °. For `Cc1ccc(Br)cc1N(CC(C)C)c1nc(-c2nc(N)cc(N)n2)cs1` [OR0637-1, 2-(2-((5-Bromo-2-methylphenyl)(isobutyl)amino)thiazol-4-yl)pyrimidine-4,6-diamine], the IC50 in assay [1] worked out at 8310 ± 1870 nM. In addition, the “AFFINITY ASSAY +ΔTm (°)” value on dCK was determined as 14.9 ± 0.2 °. Regarding `CCCN(c1nc(-c2nc(N)cc(N)n2)cs1)c1cc(-c2ccc(S(=O)(=O)N3CCN(C)CC3)cc2C(F)(F)F)ccc1C` [OR0642, 2-(2-((4-Methyl-4′-((4-methylpiperazin-1-yl)sulfonyl)-2′-(trifluoromethyl)-[1,1′-biphenyl]-3-yl)(propyl)amino)thiazol-4-yl)pyrimidine-4,6-diamine], the “effect on disease progression / disease burden (bioluminescence)” value with CCRF-CEM T-ALL cell line (CCRF-CEM leukemia bearing NSG mice, dT 1.5 g/Kg, OR0642 40 mg/Kg (hydrochloride salt) i.p., FIG. 5) is “did not show any anti-proliferative effect”. Also, the “day around which most of the mice died” value in the assay with CCRF-CEM T-ALL cell line (the two components administered separately, FIG. 8) is approximately 26 days. Regarding `CCCN(c1nc(-c2nc(N)cc(N)n2)cs1)c1cc(-c2ccc(S(=O)(=O)N3CCN(CC(=O)O)CC3)cc2)ccc1C` [OR0649, 2-(4-((3′-((4-(4,6-Diaminopyrimidin-2-yl)thiazol-2-yl)(propyl)amino)-4′-methyl-[1,1′-biphenyl]-4-yl)sulfonyl)piperazin-1-yl)acetic acid], the IC50 in assay [1] is 13400 ± 546 nM. For the same compound, at dCK, the “AFFINITY ASSAY +ΔTm (°)” value amounted to 17.6 ± 1.3 °. In the case of `CCCN(c1nc(-c2nc(N)cc(N)n2)cs1)c1cc(-c2cnc(S(=O)(=O)N3CCN(C)CC3)cc2C)ccc1C` [OR0652, 2-(2-((2-Methyl-5-(4-methyl-6-((4-methylpiperazin-1-yl)sulfonyl)pyridin-3-yl)phenyl)(propyl)amino)thiazol-4-yl)pyrimidine-4,6-diamine], in assay [1], the IC50 was 7.3 ± 2.5 nM. Further, on dCK, the “AFFINITY ASSAY +ΔTm (°)” value was 19.2 ± 0.1 °. The matching figures for `CCCN(c1nc(-c2nc(N)cc(N)n2)cs1)c1cc(Br)ccc1C` [OR0652-1, 2-(2-((5-Bromo-2-methylphenyl)(propyl)amino)thiazol-4-yl)pyrimidine-4,6-diamine]: 11300 ± 1370 nM and 13.9 ± 0.2 °.

In the case of `CCCN(c1nc(-c2nc(N)cc(N)n2)cs1)c1cc(-c2ccc(S(=O)(=O)N3CCN(C)CC3)nc2C)ccc1C` [OR0653, 2-(2-((2-Methyl-5-(2-methyl-6-((4-methylpiperazin-1-yl)sulfonyl)pyridin-3-yl)phenyl)(propyl)amino)thiazol-4-yl)pyrimidine-4,6-diamine], the IC50 in assay [1] came to 2.8 ± 1.3 nM. Also, the “AFFINITY ASSAY +ΔTm (°)” value on dCK is given as 21.6 ± 0.4 °. The matching figures for `CCCN(c1nc(-c2nc(N)cc(N)n2)cs1)c1cc(-c2cnc(OC)cc2C(F)(F)F)ccc1C` [OR0654, 2-(2-((5-(6-Methoxy-4-(trifluoromethyl)pyridin-3-yl)-2-methylphenyl)(propyl)amino)thiazol-4-yl)pyrimidine-4,6-diamine]: 610 ± 153 nM and 18.3 ± 0.4 °.

Take `CCCN(c1nc(-c2nc(N)cc(N)n2)cs1)c1cc(-c2cnc(O)cc2C(F)(F)F)ccc1C` [OR0655, 2-(2-((5-(6-Hydroxy-4-(trifluoromethyl)pyridin-3-yl)-2-methylphenyl)(propyl)amino)thiazol-4-yl)pyrimidine-4,6-diamine]: the IC50 in assay [1] worked out at 251 ± 36 nM. In addition, the “AFFINITY ASSAY +ΔTm (°)” value at dCK is recorded as 19.0 ± 0.0 °. In the same order, the values of `CCCN(c1nc(-c2nc(N)cc(N)n2)cs1)c1cc(-c2cnc(S(=O)(=O)N3CCN(C)CC3)cc2C(F)(F)F)ccc1C` [OR0656, 2-(2-((2-Methyl-5-(6-((4-methylpiperazin-1-yl)sulfonyl)-4-(trifluoromethyl)pyridin-3-yl)phenyl)(propyl)amino)thiazol-4-yl)pyrimidine-4,6-diamine] are 3.8 ± 2 nM and 21.3 ± 0.8 °.

`CCCN(c1nc(-c2nc(N)cc(N)n2)cs1)c1cc(-c2ccc(S(=O)(=O)N3CCN(C)CC3)nc2C(F)(F)F)ccc1C` [OR0657, 2-(2-((2-Methyl-5-(6-((4-methylpiperazin-1-yl)sulfonyl)-2-(trifluoromethyl)pyridin-3-yl)phenyl)(propyl)amino)thiazol-4-yl)pyrimidine-4,6-diamine]: the half-inhibitory concentration (IC50) in assay [1] worked out at 1.6 ± 0.9 nM. Moreover, the “AFFINITY ASSAY +ΔTm (°)” value on dCK amounted to 22.0 ± 0.4 °. The matching figures for `CCCN(c1nc(-c2nc(N)cc(N)n2)cs1)c1cc(-c2ccc(S(=O)(=O)N3CCNCC3)nc2C(F)(F)F)ccc1C` [OR0658, 2-(2-((2-Methyl-5-(6-(piperazin-1-ylsulfonyl)-2-(trifluoromethyl)pyridin-3-yl)phenyl)(propyl)amino)thiazol-4-yl)pyrimidine-4,6-diamine]: 11.3 ± 2.1 nM and 22.4 ± 0.1 °.
